Source: ChEMBL document CHEMBL5104202, “Structure-Uptake Relationship Studies of Oxazolidinones in Gram-Negative ESKAPE Pathogens” (J Med Chem, 2022)

What was measured:
Assay type in all cases: functional, organism-based
Pseudomonas aeruginosa [1] = experiment: Antibacterial activity against efflux pump lacking/recombinant OM pore producing Pseudomonas aeruginosa assessed as inhibition of bacterial growth
Escherichia coli [2] = experiment: Antibacterial activity against efflux pump lacking/recombinant OM pore producing Escherichia coli assessed as inhibition of bacterial growth
Acinetobacter baumannii [3] = experiment: Antibacterial activity against efflux pump lacking/recombinant OM pore producing Acinetobacter baumannii assessed as inhibition of bacterial growth
Pseudomonas aeruginosa [4] = experiment: Antibacterial activity against recombinant OM pore producing Pseudomonas aeruginosa assessed as inhibition of bacterial growth
Acinetobacter baumannii [5] = experiment: Antibacterial activity against wild type Acinetobacter baumannii assessed as inhibition of bacterial growth
Pseudomonas aeruginosa [6] = experiment: Antibacterial activity against efflux pump lacking Pseudomonas aeruginosa assessed as inhibition of bacterial growth
Escherichia coli [7] = experiment: Antibacterial activity against recombinant OM pore producing Escherichia coli assessed as inhibition of bacterial growth
Escherichia coli [8] = experiment: Antibacterial activity against wild type Escherichia coli assessed as inhibition of bacterial growth
Escherichia coli [9] = experiment: Antibacterial activity against efflux pump lacking Escherichia coli assessed as inhibition of bacterial growth
Acinetobacter baumannii [10] = experiment: Antibacterial activity against efflux pump lacking Acinetobacter baumannii assessed as inhibition of bacterial growth
Pseudomonas aeruginosa [11] = experiment: Antibacterial activity against wild type Pseudomonas aeruginosa assessed as inhibition of bacterial growth
Acinetobacter baumannii [12] = experiment: Antibacterial activity against recombinant OM pore producing Acinetobacter baumannii assessed as inhibition of bacterial growth

| SMILES | IC50 (Pseudomonas aeruginosa [1]) [µM] | IC50 (Escherichia coli [2]) [µM] | IC50 (Acinetobacter baumannii [3]) [µM] | IC50 (Pseudomonas aeruginosa [4]) [µM] | IC50 (Acinetobacter baumannii [5]) [µM] | IC50 (Pseudomonas aeruginosa [6]) [µM] | IC50 (Escherichia coli [7]) [µM] | IC50 (Escherichia coli [8]) [µM] | IC50 (Escherichia coli [9]) [µM] | IC50 (Acinetobacter baumannii [10]) [µM] | IC50 (Pseudomonas aeruginosa [11]) [µM] | IC50 (Acinetobacter baumannii [12]) [µM] |
| --- | --- | --- | --- | --- | --- | --- | --- | --- | --- | --- | --- | --- |
| CC(C(=O)NCC#Cc1ccc(N2C[C@H](CO)OC2=O)cc1F)N1CCNCC1 (some centres not stated) | > 100 | > 100 | > 100 | > 100 | > 100 | > 100 | > 100 | > 100 | > 100 | > 100 | > 100 | > 100 |
| O=C1O[C@@H](CO)CN1c1ccc(-c2ccc(-c3cccnc3)cc2)c(F)c1 | > 100 | > 100 | > 100 | > 100 | > 100 | > 100 | > 100 | > 100 | > 100 | > 100 | > 100 | > 100 |
| CC(C)(C)OC(=O)N(CC#Cc1ccc(N2C[C@H](CO)OC2=O)cc1F)CC(=O)O | > 100 | > 100 | > 100 | > 100 | > 100 | > 100 | > 100 | > 100 | > 100 | > 100 | > 100 | > 100 |
| O=C1O[C@@H](CO)CN1c1ccc(-c2ccc3cnccc3c2)c(F)c1 | 37.9 | > 100 | 5.6 | > 100 | > 100 | 67.7 | > 100 | > 100 | > 100 | 5.6 | > 100 | > 100 |
| O=C1O[C@@H](CO)CN1c1ccc(-c2cccc3cc[nH]c23)c(F)c1 | > 100 | 7.2 | 62.1 | > 100 | > 100 | > 100 | 19.5 | 77 | 21.6 | 64.4 | > 100 | > 100 |
| O=C1O[C@@H](CO)CN1c1ccc(C#Cc2cc(Cl)cc(Cl)c2)c(F)c1 | 16.2 | 3.6 | > 100 | > 100 | > 100 | 64.9 | 12.8 | 74.8 | 26.1 | > 100 | > 100 | > 100 |
| O=C1O[C@@H](CO)CN1c1ccc(-c2ccc(O)cc2)c(F)c1 | 5.8 | 2.3 | 7.3 | 27.7 | > 100 | 8.4 | 22.1 | > 100 | 2 | 8.4 | > 100 | 12.9 |
| COc1ccc(CNC(=O)OC(C)(C)C)cc1OCC#Cc1ccc(N2C[C@H](CO)OC2=O)cc1F | 46.9 | 44.4 | 28.7 | > 100 | > 100 | > 100 | > 100 | > 100 | 42.9 | 72.2 | > 100 | 42.4 |
| CC(C)(C)OC(=O)N[C@@H](Cc1cccc(-c2ccc(N3C[C@H](CO)OC3=O)cc2F)c1)C(=O)O | > 100 | > 100 | > 100 | > 100 | > 100 | > 100 | > 100 | > 100 | > 100 | > 100 | > 100 | > 100 |
| CC(C)(C)OC(=O)NC(CO)CC#Cc1ccc(N2C[C@H](CO)OC2=O)cc1F (some centres not stated) | > 100 | 67.8 | > 100 | > 100 | > 100 | > 100 | 97.3 | > 100 | 72.6 | > 100 | > 100 | > 100 |
| O=C1NCCN1CC#Cc1ccc(N2C[C@H](CO)OC2=O)cc1F | > 100 | 39 | > 100 | > 100 | > 100 | > 100 | > 100 | > 100 | 64.3 | > 100 | > 100 | > 100 |
| O=C1O[C@@H](CO)CN1c1ccc(-c2ccccc2)c(F)c1 | 1.4 | 0.3 | 1.9 | 13.1 | 18.4 | 2.3 | 2 | 18.4 | 0.4 | 2.3 | > 100 | 5.5 |
| NCC#Cc1ccc(N2C[C@H](CO)OC2=O)cc1F | > 100 | > 100 | > 100 | > 100 | > 100 | > 100 | > 100 | > 100 | > 100 | > 100 | > 100 | > 100 |
| CC(C)(C)OC(=O)NNC(=O)C(CC#Cc1ccc(N2C[C@H](CO)OC2=O)cc1F)NC(=O)OC(C)(C)C (some centres not stated) | > 100 | 56.1 | > 100 | > 100 | > 100 | > 100 | 51.4 | > 100 | 13.3 | > 100 | > 100 | > 100 |
| O=C1O[C@@H](CO)CN1c1ccc(-c2ccccn2)c(F)c1 | 47.4 | 79.6 | > 100 | > 100 | > 100 | 64.2 | > 100 | > 100 | 76.8 | > 100 | > 100 | > 100 |
| CC(C)c1ccc(-c2ccc(N3C[C@H](CO)OC3=O)cc2F)c(C(C)C)c1 | 22.3 | 6.6 | 8.2 | > 100 | > 100 | 49 | 20.4 | 99.1 | 15.9 | 17.3 | > 100 | 77.9 |
| Cc1ccc(-c2ccc(N3C[C@H](CO)OC3=O)cc2F)cc1 | 3.8 | 0.3 | 1.6 | > 100 | > 100 | 2.3 | 3.2 | 28 | 0.3 | 2.3 | > 100 | > 100 |
| COc1ccc(CN)cc1OCC#Cc1ccc(N2C[C@H](CO)OC2=O)cc1F | > 100 | > 100 | > 100 | > 100 | > 100 | > 100 | > 100 | > 100 | > 100 | > 100 | > 100 | > 100 |
| O=C1O[C@@H](CO)CN1c1ccc(-c2cc[n+](Cc3ccccc3)cc2)c(F)c1 | 1.1 | 15.6 | 13 | 41.7 | > 100 | 4.6 | 23.3 | 51.6 | 15.5 | 23.4 | > 100 | 15.6 |
| C[n+]1cccc(-c2ccc(N3C[C@H](CO)OC3=O)cc2F)c1 | > 100 | 88.8 | > 100 | > 100 | > 100 | > 100 | > 100 | > 100 | 70.6 | > 100 | > 100 | > 100 |
| O=C1O[C@@H](CO)CN1c1ccc(-c2ccc(SC(F)(F)F)cc2)c(F)c1 | 6.9 | 4.9 | 8.1 | > 100 | 63.5 | 78.2 | 9.4 | 35.1 | 6.9 | 9.1 | > 100 | 23.5 |
| Nc1cccc(C#Cc2ccc(N3C[C@H](CO)OC3=O)cc2F)n1 | > 100 | 20.5 | 76.7 | > 100 | > 100 | > 100 | 19.2 | 59 | 34.2 | 83.9 | > 100 | 49.8 |
| O=C1O[C@@H](CO)CN1c1ccc(-c2ccc(-c3ccccn3)cc2)c(F)c1 | > 100 | 55.2 | 21.5 | > 100 | 35.3 | > 100 | 47.2 | 76.2 | 55.6 | 21.5 | > 100 | 35.3 |
| O=Cc1ccc(-c2ccc(N3C[C@H](CO)OC3=O)cc2F)cc1 | 0.02 | 0.5 | 1.2 | 5.9 | 18.4 | 1.1 | 5 | 66.8 | 0.6 | 1.1 | > 100 | 16.9 |
| Cn1ncc(C#Cc2ccc(N3C[C@H](CO)OC3=O)cc2F)c1C(=O)O | > 100 | > 100 | 89.5 | > 100 | > 100 | > 100 | > 100 | > 100 | > 100 | 88.2 | > 100 | 61.3 |
| NC(CO)CC#Cc1ccc(N2C[C@H](CO)OC2=O)cc1F (some centres not stated) | > 100 | > 100 | > 100 | > 100 | > 100 | > 100 | > 100 | > 100 | > 100 | > 100 | > 100 | > 100 |
